# Results taken from ChEMBL document CHEMBL5154725, “SAR evolution towards potent C-terminal carboxamide peptide inhibitors of Zika virus NS2B-NS3 protease” (Bioorg Med Chem, 2022).
# The source made the active and inactive calls. The rule behind the calls is not given here. Non-standard residues stand in square brackets, D forms with d. Residues, ends and D or L forms follow the SMILES beside them. *: point of attachment. Phe(4-CH2NH2) = NCc1ccc(C[C@H](N)C(=O)O)cc1; Phe(4-NH2) = Nc1ccc(C[C@H](N)C(=O)O)cc1; Aad = N[C@@H](CCCC(=O)O)C(=O)O; Cit = NC(=O)NCCC[C@H](N)C(=O)O; NHPhenethyl = c1ccc(CCN*)cc1; PhAc = O=C(Cc1ccccc1)*; NHCH2CH2OH = OCCN*
# Columns and labels:
# [1] = system: Zika virus; experiment: (§1) Inhibition of 6-His tagged-G4SG4 fused ZIKV NS2B (49 to 95 residues) R95A mutant-NS3 (1 to 170 residue) R29G mutant expressed in Escherichia coli BL21 (DE3) using Bz-Nle-K-RR-AMC substrate at 100 uM preincubated for 10 mins followed by substrate addition and measured after 30 mins by fluorescence assay relative to control; conditions: time 40.0 min
# [2] = system: Zika virus; experiment: as §1, with “50” for “100”; conditions: time 40.0 min
# [3] = Stability of compound assessed 6-His tagged-G4SG4 fused ZIKV NS2B (49 to 95 residues) R95A mutant-NS3 (1 to 170 residue) R29G mutant expressed in Escherichia coli BL21 (DE3) based degradation by LC-HRMS analysis; assay type: ADME; conditions: zika virus
# [4] = Binding affinity to 6-His tagged-G4SG4 fused ZIKV NS2B (49 to 95 residues) R95A mutant-NS3 (1 to 170 residue) R29G mutant expressed in Escherichia coli BL21 (DE3) by surface plasmon resonance assay; parameters: species or system Zika virus
# [5] = system: Zika virus; experiment: Antiviral activity against ZIKV infected in African Green monkey Vero cells assessed as reduction in viral replication; assay type: functional, organism-based
# [6] = (§2) Inhibition of 6-His tagged-G4SG4 fused ZIKV NS2B (49 to 95 residues) R95A mutant-NS3 (1 to 170 residue) R29G mutant expressed in Escherichia coli BL21 (DE3) using Bz-Nle-K-RR-AMC substrate preincubated for 10 mins followed by substrate addition and measured after 30 mins by fluorescence assay; parameters: species or system Zika virus
# [7] = system: Zika virus; experiment: as §2, with “(DE3) assessed as covalent adduct formation” for “(DE3)”, “LC-HRMS analysis” for “fluorescence assay”; conditions: time 40.0 min
# [8] = system: Zika virus; experiment: as §2; conditions: time 40.0 min
# [9] = target: Trypsin (Homo sapiens, UniProt P07477+P07478+P35030); experiment: Inhibition of human trypsin; assay type: protein assay
# [10] = Inhibition of 6-His tagged-G4SG4 fused WNV NS2B (1423 to 1470 residues) -NS3 (1506 to 1689 residue) using pERTKR-AMC substrate preincubated for 10 mins followed by substrate addition and measured after 30 mins by fluorescence assay; parameters: species or system West Nile virus
# [11] = target: Genome polyprotein (dengue virus type 2, UniProt P29990); experiment: Inhibition of 6-His tagged-G4SG4 fused DENV2 NS2B (1394 to 1440 residues) -NS3 (1476 to 1660 residue) expressed in Escherichia coli BL21 (DE3) using Bz-Nle-K-RR-AMC substrate preincubated for 10 mins followed by substrate addition and measured after 30 mins by fluorescence assay
# Chain of Genome polyprotein (P29990 1346-1475 limits assumed): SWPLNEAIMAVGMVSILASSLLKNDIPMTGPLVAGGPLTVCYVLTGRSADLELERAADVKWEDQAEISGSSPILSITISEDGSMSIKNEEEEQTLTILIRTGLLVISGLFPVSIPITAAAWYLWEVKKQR
# Chain of Genome polyprotein (P29990 1476-2093 limits assumed): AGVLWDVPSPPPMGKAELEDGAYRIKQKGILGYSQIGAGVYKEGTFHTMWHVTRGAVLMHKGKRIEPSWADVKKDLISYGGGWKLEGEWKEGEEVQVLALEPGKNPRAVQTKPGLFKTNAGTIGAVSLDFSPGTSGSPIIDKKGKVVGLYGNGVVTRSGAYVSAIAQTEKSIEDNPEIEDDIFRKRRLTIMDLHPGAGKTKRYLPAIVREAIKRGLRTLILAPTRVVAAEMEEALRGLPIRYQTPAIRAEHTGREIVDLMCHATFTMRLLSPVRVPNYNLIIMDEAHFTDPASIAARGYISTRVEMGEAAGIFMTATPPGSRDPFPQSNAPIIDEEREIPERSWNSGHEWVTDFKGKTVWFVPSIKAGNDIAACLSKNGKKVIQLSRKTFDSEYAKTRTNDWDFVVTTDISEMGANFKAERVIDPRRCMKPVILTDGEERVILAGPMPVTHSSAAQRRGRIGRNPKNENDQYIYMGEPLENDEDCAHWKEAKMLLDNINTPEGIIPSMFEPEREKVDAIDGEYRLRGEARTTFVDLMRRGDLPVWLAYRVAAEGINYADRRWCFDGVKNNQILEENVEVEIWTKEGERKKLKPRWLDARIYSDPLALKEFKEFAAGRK
Structure (SMILES),IC50 [6] [nM],further results
CC(=O)N[C@H](C(=O)NCC(=O)N[C@@H](CCCCN)C(=O)N[C@@H](CCCNC(=N)N)C(=O)O)[C@@H](C)O (Ac-TGKR-OH),–,inhibition [1]: 40%
N=C(N)NCCC[C@H](NC(=O)[C@H](Cc1ccc(CN)cc1)NC(=O)[C@H](CCCCN)NC(=O)Cc1ccccc1)C(N)=O (PhAc-Lys-[Phe(4-CH2NH2)]-Arg-NH2),–,inhibition [1]: 66%
N=C(N)NCCC[C@H](NC(=O)[C@H](CCCCN)NC(=O)CNC(=O)Cc1ccccc1)C(=O)O (PhAc-Gly-Lys-Arg-OH),–,inhibition [1]: 40%
N=C(N)NCCC[C@H](NC(=O)[C@H](CCCCN)NC(=O)[C@H](CCCC(N)=O)NC(=O)Cc1ccccc1)C(N)=O (PhAc-[Aad](NH2)-Lys-Arg-NH2),–,inhibition [2]: 40%
CC(=O)N[C@@H](CCCCN)C(=O)N[C@@H](CCCCN)C(=O)N[C@H](C(=O)NCc1ccc(OCc2ccc(C(F)(F)F)cc2)cc1)c1ccccc1,41,Stability [3]: Stable; Kd [4]: 23 nM; EC50 [5]: 11200 nM; Ki [6]: 14 nM; inhibition [7]: Active
N=C(N)NCCC[C@H](NC(=O)[C@H](CCCCN)NC(=O)CNC(=O)Cc1ccccc1)C(N)=O (PhAc-Gly-Lys-Arg-NH2),–,inhibition [1]: 40%
N=C(N)NCCC[C@H](NC(=O)[C@H](CCCCN)NC(=O)[C@H](CCCCN)NC(=O)Cc1nccs1)C(N)=O,22700,–
N=C(N)NCCC[C@H](NC(=O)[C@H](CCCCN)NC(=O)[C@H](CCCCN)NC(=O)Cc1ccc(Cl)c(Cl)c1)C(N)=O,1230,–
N=C(N)CCCC[C@H](NC(=O)[C@H](CCCCN)NC(=O)[C@H](Cc1ccc(C(N)=O)cc1)NC(=O)Cc1ccccc1)C(N)=O,42300,–
NCCCC[C@H](NC(=O)Cc1ccccc1)C(=O)N[C@@H](CCCCN)C(=O)N[C@@H](C(=O)NCc1ccccc1)c1ccccc1,1900,–
NCCCC[C@H](NC(=O)Cc1ccccc1)C(=O)N[C@@H](CCCCN)C(=O)N[C@H](C(=O)NCc1ccc(O)cc1)c1ccccc1,370,–
N=C(N)NCCC[C@H](NC(=O)c1cccs1)C(=O)N[C@@H](CCCCN)C(=O)N[C@H](C(N)=O)c1ccc(OCC2CCCCC2)cc1,10800,–
N=C(N)NCCC[C@H](NC(=O)[C@H](CC1CCNCC1)NC(=O)[C@H](CCCCN)NC(=O)Cc1ccccc1)C(N)=O,12200,–
COc1ccc(CC(=O)N[C@@H](CCCCN)C(=O)N[C@@H](CCCCN)C(=O)N[C@H](C(=O)NCc2ccccc2)c2ccc(OCc3ccc(C(F)(F)F)cc3)cc2)cc1,270,–
CC(=O)N[C@H](C(=O)NCC(=O)N[C@@H](CCCCN)C(=O)N[C@@H](CCCNC(=N)N)C(N)=O)[C@@H](C)O (Ac-TGKR-NH2),–,inhibition [1]: 40%
N=C(N)NCCC[C@H](NC(=O)c1cccs1)C(=O)N[C@@H](CCCCN)C(=O)N[C@H](C(N)=O)c1ccc(O)cc1,10200,–
N=C(N)NCCC[C@H](NC(=O)[C@H](CCCCN)NC(=O)[C@H](CCCCN)NC(=O)C1(c2ccccc2)CC1)C(N)=O,10100,–
N=C(N)NCCC[C@H](NC(=O)[C@H](CCCCN)NC(=O)[C@H](CCCCN)NC(=O)Cc1ccccc1)C(=O)NCCO (PhAc-Lys-Lys-Arg-NHCH2CH2OH),10800,–
NCCCC[C@H](NC(=O)Cc1ccccc1)C(=O)N[C@@H](CCCCN)C(=O)N[C@H](C(=O)NCc1ccccc1)c1ccccc1,550,–
N=C(N)NCCC[C@H](NC(=O)[C@H](CCCCN)NC(=O)[C@H](CCCCN)NC(=O)Cc1ccccc1)C(N)=O (PhAc-Lys-Lys-Arg-NH2),3000,Ki [6]: 2400 nM; IC10 [8]: 300 nM; IC80 [8]: 10000 nM
N=C(N)NCCC[C@H](NC(=O)c1cccs1)C(=O)N[C@@H](CCCCN)C(=O)N[C@H](C(N)=O)c1ccc(OCc2ccncc2)cc1,12100,–
N=C(N)NCCC[C@H](NC(=O)[C@H](CCCNC(N)=O)NC(=O)[C@H](CCCCN)NC(=O)Cc1ccccc1)C(N)=O (PhAc-Lys-[Cit]-Arg-NH2),> 100000,–
NCCCC[C@H](NC(=O)CC1CCCCC1)C(=O)N[C@@H](CCCCN)C(=O)N[C@H](C(=O)NCc1ccccc1)c1ccc(OCc2ccc(C(F)(F)F)cc2)cc1,150,–

Structure (SMILES),IC50 [6] [nM],further results
N=C(N)NCCC[C@H](NC(=O)c1cccs1)C(=O)N[C@@H](CCCCN)C(=O)NCc1ccc(OCc2ccc(C(F)(F)F)cc2)cc1,8200,–
CN(C)CCOc1ccc([C@H](NC(=O)[C@H](CCCCN)NC(=O)[C@H](CCCNC(=N)N)NC(=O)c2cccs2)C(N)=O)cc1,5500,–
NCCCC[C@H](NC(=O)Cc1ccccc1)C(=O)N[C@@H](CCCCN)C(=O)N[C@H](C(=O)NCc1ccc2c(c1)OCO2)c1ccc(OCc2ccc(C(F)(F)F)cc2)cc1,60,–
N=C(N)NCCC[C@H](NC(=O)c1cccs1)C(=O)N[C@@H](CCCCN)C(=O)N[C@@H](C(=O)NCc1ccccc1)c1ccc(OCc2ccc(C(F)(F)F)cc2)cc1,920,–
CN(Cc1ccccc1)C(=O)[C@H](CCCNC(=N)N)NC(=O)[C@H](CCCCN)NC(=O)[C@H](CCCCN)NC(=O)Cc1ccccc1,70000,–
NCCCC[C@H](NC(=O)Cc1ccccc1)C(=O)N[C@@H](CCCCN)C(=O)N[C@H](C(=O)Nc1ccccc1)c1ccc(OCc2ccc(C(F)(F)F)cc2)cc1,3400,–
N=C(N)NCCC[C@H](NC(=O)[C@H](CCCCN)NC(=O)[C@H](CCCCN)NC(=O)Cc1ccccc1)C(=O)NCc1ccncc1,14100,–
CN1CCC(CNC(=O)[C@H](CCCNC(=N)N)NC(=O)[C@H](CCCCN)NC(=O)[C@H](CCCCN)NC(=O)Cc2ccccc2)CC1,7800,–
NCCCC[C@H](NC(=O)Cc1ccccc1)C(=O)N[C@@H](CCCCN)C(=O)N[C@H](C(=O)NCc1ncco1)c1ccc(OCc2ccc(C(F)(F)F)cc2)cc1,1500,–
N=C(N)NCCC[C@H](NC(=O)[C@H](Cc1ccc(N)cc1)NC(=O)[C@H](CCCCN)NC(=O)Cc1ccccc1)C(N)=O (PhAc-Lys-[Phe(4-NH2)]-Arg-NH2),> 100000,–
COc1ccc([C@H](NC(=O)[C@H](CCCCN)NC(=O)[C@H](CCCNC(=N)N)NC(=O)c2cccs2)C(N)=O)cc1,44300,–
NCCCC[C@H](NC(=O)Cc1ccccc1)C(=O)N[C@@H](CCCCN)C(=O)N[C@H](C(=O)NCCc1ccccc1)c1ccc(OCc2ccc(C(F)(F)F)cc2)cc1,620,–
N=C(N)NCCC[C@H](NC(=O)[C@H](CCCCN)NC(=O)[C@H](CCCCN)NC(=O)Cc1ccc(-c2ccccc2)cc1)C(N)=O,1550,–
N=C(N)NCCC[C@H](NC(=O)[C@H](CCCCN)NC(=O)[C@H](CCCCN)NC(=O)Cc1ccccc1)C(=O)O (PhAc-Lys-Lys-Arg-OH),41000,–
N=C(N)NCCC[C@H](NC(=O)[C@H](CCCCN)NC(=O)[C@H](CCCCN)NC(=O)Cc1ccccc1)C(=O)NCCc1ccccc1 (PhAc-Lys-Lys-Arg-NHPhenethyl),11600,–
CC(=O)N[C@@H](CCCCN)C(=O)N[C@@H](CCCCN)C(=O)N[C@H](C(=O)NCc1ccccc1)c1ccc(OCc2ccc(C(F)(F)F)cc2)cc1,28,Stability [3]: Stable; IC50 [9]: 2300 nM; IC50 [10]: 800 nM; Kd [4]: 11 nM; IC50 [11]: 200 nM; EC50 [5]: 8500 nM; Ki [6]: 7 nM; inhibition [7]: Active
N=C(N)NCCC[C@H](NC(=O)c1cccs1)C(=O)N[C@@H](CCCCN)C(=O)N[C@@H](C(N)=O)c1ccc(OCc2ccc(C(F)(F)F)cc2)cc1,1600,–
C[C@H](NC(=O)[C@H](CCCNC(=N)N)NC(=O)[C@H](CCCCN)NC(=O)[C@H](CCCCN)NC(=O)Cc1ccccc1)c1ccccc1,–,inhibition [2]: 50%
N=C(N)NCCC[C@H](NC(=O)Cc1ccccc1)C(=O)N[C@@H](CCCCN)C(=O)N[C@H](C(N)=O)c1ccc(OCc2ccc(C(F)(F)F)cc2)cc1,31800,–
N=C(N)NCCC[C@H](NC(=O)c1cccs1)C(=O)N[C@@H](CCCCN)C(=O)NC(C(N)=O)c1ccc(-c2ccc(C(F)(F)F)cc2)cc1 (mixture of isomers),6100,–
NCCCC[C@H](NC(=O)Cc1ccc(Cl)c(Cl)c1)C(=O)N[C@@H](CCCCN)C(=O)N[C@H](C(=O)NCc1ccc(OCc2ccc(C(F)(F)F)cc2)cc1)c1ccccc1,170,–
N=C(N)NCCC[C@H](NC(=O)c1cccs1)C(=O)N[C@@H](CCCCN)C(=O)N[C@H](C(N)=O)c1ccc(OCc2ccccc2)cc1,7600,–
